How the values were obtained:
[1] = tested on: Critical Hind-Limb Ischemia Mouse Model; experiment: In vivo assessment of limb function, mouse hind-limb ischemia
Method: Semi-quantitative assessment of impaired use of the ischemic limb was performed once a week post-surgery using the following scale, see Table 7.
Limb function was graded as “Not applicable” in case of partial or full limb amputation. In such case blood flow measurements was not included in the statistical analysis.

[2] = tested on: Critical Hind-Limb Ischemia Mouse Model; experiment: Macroscopic evaluation of ischemic severity (necrosis grades), mouse hind-limb ischemia
Excerpt: On the day of surgery anesthesia was induced by 1.5 to 3.0% isoflurane, 1.5% N2O and 0.5% O2. Under anesthesia, the mice were placed with ventral side up. A 0.5-1.0 cm incision was made in the skin in the inguinal area. The femoral artery was ligated proximally just after the distal part of the iliac artery and distally after its bifurcation with profound femoral artery with 6-0 silk thread, transected and excised between two ligatures. The wound was closed with 4-0 silk thread and the mice were allowed to recover.
On day 8, week 2 post-surgery, each animal in groups 2M and 3M were injected dextran sulfate solution s.c. three times a week.

[3] = day 7 (before treatment), group 2M, 10 mg/kg 3 times/week
[4] = day 7 (before treatment), group 3M, 30 mg/kg 3 times/week
[5] = day 7 (before treatment), group 4M, 30 mg/kg 1 time/week
[6] = day 35, group 2M, 10 mg/kg s.c. 3 times/week
[7] = day 35, group 3M, 30 mg/kg s.c. 3 times/week
[8] = day 35, group 4M, 30 mg/kg s.c. 1 time/week
[9] = day 7 (before treatment start day 8), group 2M, 10 mg/kg 3 times/week
[10] = day 7 (before treatment start day 8), group 3M, 30 mg/kg 3 times/week
[11] = day 7 (before treatment start day 8), group 4M, 30 mg/kg 1 time/week

Dextran sulfate
Limb function score (0-3, 3 worst) ([1]; 10 or 30 mg/kg, 1x/w or 3x/w from day 8, from day 21 and onward, two-way ANOVA): significant improvement
Incidence of mice with limb function score 0 [1, 3]: 0.0%
Incidence of mice with limb function score 1 [1, 3]: 0.0%
Incidence of mice with limb function score 2 [1, 3]: 21.4%
Incidence of mice with limb function score 3 [1, 3]: 79.6%
Incidence of mice with limb function score 0 [1, 4]: 0.0%
Incidence of mice with limb function score 1 [1, 4]: 0.0%
Incidence of mice with limb function score 2 [1, 4]: 21.4%
Incidence of mice with limb function score 3 [1, 4]: 79.6%
Incidence of mice with limb function score 0 [1, 5]: 0.0%
Incidence of mice with limb function score 1 [1, 5]: 0.0%
Incidence of mice with limb function score 2 [1, 5]: 7.1%
Incidence of mice with limb function score 3 [1, 5]: 92.9%
Incidence of mice with limb function score 0 [1, 6]: 50.0%
Incidence of mice with limb function score 1 [1, 6]: 42.9%
Incidence of mice with limb function score 2 [1, 6]: 7.1%
Incidence of mice with limb function score 3 [1, 6]: 0.0%
Incidence of mice with limb function score 0 [1, 7]: 72.4%
Incidence of mice with limb function score 1 [1, 7]: 21.5%
Incidence of mice with limb function score 2 [1, 7]: 7.1%
Incidence of mice with limb function score 3 [1, 7]: 0.0%
Incidence of mice with limb function score 0 [1, 8]: 69.2%
Incidence of mice with limb function score 1 [1, 8]: 30.8%
Incidence of mice with limb function score 2 [1, 8]: 0.0%
Incidence of mice with limb function score 3 [1, 8]: 0.0%
Incidence of mice with limb amputation [2, 9]: 0.0%
Incidence of mice with toe necrosis [2, 9]: 0.0%
Incidence of mice with limb amputation [2, 10]: 0.0%
Incidence of mice with toe necrosis [2, 10]: 0.0%
Incidence of mice with limb amputation [2, 11]: 0.0%
Incidence of mice with toe necrosis [2, 11]: 0.0%
Incidence of mice with limb amputation ([2]; day 35, group 2M, 10 mg/kg s.c. 3 times/week, vehicle 15.4): 0.0%
Incidence of mice with toe necrosis ([2]; day 35, group 2M, 10 mg/kg s.c. 3 times/week, vehicle 23.1): 21.4%
Incidence of mice with limb amputation ([2]; day 35, group 3M, 30 mg/kg s.c. 3 times/week, vehicle 15.4): 0.0%
Incidence of mice with toe necrosis ([2]; day 35, group 3M, 30 mg/kg s.c. 3 times/week, vehicle 23.1): 14.3%
Incidence of mice with limb amputation ([2]; day 35, group 4M, 30 mg/kg s.c. 1 time/week, vehicle 15.4): 7.1%

Reference: US10925890B2, “Use of dextran sulfate” (TX MEDIC AB, priority 2014, dated 2021)
